Test results taken from patent US10426718B2, “Compositions and methods for treating hair loss and delaying aging of skin” (Phyto Tech Corp., priority 2012, dated 2019).

Experiments:
Format in all cases: in vivo, mouse
[1] = tested on: chronically stressed C57BL/6J mice; test: open field test (OFT) behavioral anxiety test in chronically stressed mice; conditions: 1 μM DHM in Vaseline, topical once per day for six weeks
Procedure: (§1) The effectiveness of DHM in the treatment of stress-induced hair loss was tested using two groups of eight week old C57BL/6J mice. Chronic stress was induced in the first group (n=20) by restraining each mouse in the test group for 3 hours per day for 21 consecutive days in a modified 50 ml clear polystyrene conical centrifuge tube with multiple air holes for ventilation. The second group of mice (n=10) remained undisturbed in their home cages (Fernandex-Vozmediano et al. (1994) “Contact dermatitis due to topical spironolactone.” Contact Dermatitis 30: 118-9; Tresch, et al. (2011) “T cell-mediated acute localized exanthematous pustulosis caused by finasteride.” J Allergy Clin Immunol 129: 589-94). The completion of the 21 day stress-induction cycle was followed by a two day withdrawal. […] The rodents' stress levels were also assessed via elevated plus maze (EPM) and open field test (OFT). […] Within the context of EPM, anxiety-related behavior was measured by the degree to which a mouse avoided the unenclosed arms of the maze. […] In OFT, each mouse was placed on an empty table surrounded by walls, and the mouse's movements and the time it spent moving were monitored. Within the context of OFT, anxiety-related behavior was measured by the degree to which a mouse avoided the open center and stayed close to the walls. […]

[2] = tested on: chronically stressed C57BL/6J mice; test: treatment of stress-induced hair loss (restraint-stressed mice), hair regrowth; conditions: 1 μM DHM in 1 oz. Vaseline, topical once per day for six weeks, vs Vaseline alone
Procedure: as §1

[3] = tested on: C57BL/6J male mice; test: induction of anagen on depilated dorsal skin; conditions: DHM 10% (w/w-%), 1 ml topical daily, day 8; vs vehicle control; similar to minoxidil 2%; P<0.05, N=10
From the text: (§2) A total of 40 seven-week-old, wild type C57BL/6J male mice were used for the study. The mice were housed individually (one mouse/cage). The mice were randomly assigned to one of four treatment groups that contained 10 mice per group. The treatment groups included a vehicle control, a positive control (minoxidil 2%), DHM 5% (w/w-%), and DHM 10% (w/w-%).
(§3) The vehicle used for all treatment groups was a mixture of alcohol denat., propanediol, water, ethylhexylglycerin, and phenoxyethanol. The DHM used in the DHM treatment groups has a purity of 98%.
(§4) The DHM 10% treatment contained the following percentage concentrations (w/w-%): 20% alcohol denat., 10% DHM, 50% propanediol, 19.5% water, and 0.5% ethylhexylglycerin and phenoxyethanol.
(§5) The hair of the dorsal skin (2×5 cm) from every mouse was removed by clipping and topical application of calcium thioglycolate to depilate the clipped area. The next day, mice without visible wounds were used for the study. The mice received a daily topical application of 1 ml of their respective treatment per day. Hair regrowth was quantified by analyzing photographs that were taken of each mouse every 4 days after topical treatment for a total of 21 days (day 0, 4, 8, 12, 16, and 21). For each mouse, an area of 3 cm^2 of the back was analyzed. All experiments were continued for 21 days. […]

[4] = tested on: c57BL/6J mice; test: topical toxicity / allergic reaction test, Vaseline mixed with DHM on shaved skin; conditions: Vaseline mixed with 1 g DHM, six weeks
From the text: To determine whether topical application of DHM is toxic or causes allergic reaction, Vaseline mixed with 1 g DHM was applied to the shaved skin of c57BL/6J mice for six weeks.

[5] = tested on: C57BL/6J male mice; test: hair regrowth on depilated dorsal skin; conditions: DHM 10% (w/w-%), 1 ml topical daily, day 12; vs vehicle control; similar to minoxidil 2%; P<0.05, N=10
From the text: as §2, §3, §4, §5

[6] = tested on: chronically stressed C57BL/6J mice; test: elevated plus maze (EPM) behavioral anxiety test in chronically stressed mice; conditions: for behavioral anxiety (EPM and OFT together): 1 μM DHM, daily topical treatment for 6 weeks, chronically stressed mice
Procedure: The effectiveness of DHM in the treatment of stress-induced hair loss was tested using two groups of eight week old C57BL/6J mice. Chronic stress was induced in the first group (n=20) by restraining each mouse in the test group for 3 hours per day for 21 consecutive days in a modified 50 ml clear polystyrene conical centrifuge tube with multiple air holes for ventilation. The second group of mice (n=10) remained undisturbed in their home cages (Fernandex-Vozmediano et al. (1994) “Contact dermatitis due to topical spironolactone.” Contact Dermatitis 30: 118-9; Tresch, et al. (2011) “T cell-mediated acute localized exanthematous pustulosis caused by finasteride.” J Allergy Clin Immunol 129: 589-94). The completion of the 21 day stress-induction cycle was followed by a two day withdrawal. […] The rodents' stress levels were also assessed via elevated plus maze (EPM) and open field test (OFT). EPM and OFT are behavioral tests that are commonly used to assess anxiety by measuring a mouse's locomotor activity and willingness to explore. When anxious, rodents naturally prefer enclosed dark spaces to opened brightly lit spaces. In the EPM test, individual mice from each group were placed on a plus-shaped apparatus that was raised from the floor and had two open and two enclosed arms. Within the context of EPM, anxiety-related behavior was measured by the degree to which a mouse avoided the unenclosed arms of the maze. As shown in FIG. 2A and FIG. 2B, the unstressed mice explored the open arms, whereas the chronically stressed mice avoided the open arms and restricted their movements to the closed arms. In OFT, each mouse was placed on an empty table surrounded by walls, and the mouse's movements and the time it spent moving were monitored. Within the context of OFT, anxiety-related behavior was measured by the degree to which a mouse avoided the open center and stayed close to the walls. As shown in FIG. 2C and FIG. 2D, the unstressed mice explored center of the table, whereas the chronically stressed mice avoided the center and remained in the corners. […]

SMILES: O=C1c2c(O)cc(O)cc2O[C@H](c2cc(O)c(O)c(O)c2)[C@H]1O [DHM, (2R,3R)-3,5,7-trihydroxy-2-(3,4,5-trihydroxyphenyl)-2,3-dihydrochromen-4-one]
- locomotor activity in OFT [1]: significantly increased locomotor activity
- running distance in OFT [1]: longer running distance comparable to those of unstressed mice
- hair regrowth on bald spots [2]: hair regrowth was observed
- hair regrowth on bald spots ([2]; listed as dihydromyricetin): regrowth of hair
- induction of anagen (grading 0-3) [3]: significantly different to treatment with the vehicle control
- changes in body weight [4]: did not exhibit any changes
- changes in metabolic rate [4]: did not exhibit any changes
- rash, redness, or other responses associated with an allergic reaction [4]: did not exhibit rash, redness, or other responses associated with an allergic reaction
- hair regrowth (grading 0-3) [5]: statistically significant increase in hair regrowth
- willingness to explore the open arms of the EPM apparatus ([6]; 1 μM DHM in Vaseline, topical once per day for six weeks, compared with unstressed control mice): as willing to explore the open arms of the EPM apparatus as the unstressed control mice
- behavioral anxiety (EPM and OFT together) [6]: reversed
- behavioral anxiety (EPM and OFT together) ([6]; listed as dihydromyricetin): behavioral anxiety was reduced
